Source: patent US20120232158A1, “METHODS OF TREATING HYPERACIDIC DISORDERS” (Yale Univeristy, priority 2008, published 2012)
“Also recorded” adds a separate entry of the source.

Columns and labels:
Assay type in all cases: cell-based
[1] = tested on: gastric glands (gastric parietal cells); assay: Secretagogue (histamine) induced acid secretion in superfused gastric glands from Sprague-Dawley rats; conditions: rat glands treated with secretagogue (histamine) first (bars B, C, D); FIG. 6
Description: The HEPES-Ringer solution contained (in mmol/L): NaCl 125; KCl 5; MgCl2 0.5; HEPES 22, CaCl2 0.1 or 1.6; glucose 10, pH=7.4. The solution was bubbled with 100% O2. 2′,7′-bis′(carboxyethyl)-5-(6)-carboxyfluorescein (BCECF) from Invitrogen (Seattle, Wash., USA) and stock solutions were prepared in dimethyl sulphoxide (DMSO). […]

[2] = tested on: gastric glands (gastric parietal cells); assay: Acid secretion by superfused gastric glands isolated from Sprague-Dawley rats (rate of recovery after acid load, BCECF); conditions: FIG. 1
Description: (§1) Male (Casr^+/+; Gcm2^−/−) or CaSR knockout (Casr^−/−; Gcm2^−/−) mice weighing 22-27 grams (upper panel) or male Sprague-Dawley rats weighing 220-275 grams (lower panel) were fasted with ad lib access to water for 18 hours prior to experimentation. The animals were exposed to an overdose of isofluorane and the stomach was removed by a total gastrectomy. The corpus was removed from the stomach and sectioned at 4° C. All mice were generated at Yale University from a breeding colony. Male Sprague-Dawley rats were purchased from Charles River Laboratories Inc. (Wilmington, Mass.). All animals were cared for according to the standard protocols of the Yale University Animal Care and Use Committee.
(§2) The HEPES-Ringer solution contained (in mmol/L): NaCl 125; KCl 5; MgCl2 0.5; HEPES 22, CaCl2 0.1 or 1.6; glucose 10, pH=7.4. […]
(§3) Individual gastric glands were hand dissected and transferred to the stage of an inverted microscope where they were loaded with the intracellular pH marker BCECF. […] The rate of recover was then calculated in the presence or absence of the calcimimetic Compound A at either 10 or 100 nM concentration.
(§4) The rate of recovery in the absence of Na was recorded for each parietal cell and then summated and the mean ±SEM of the data for each gland and then for each animal determined. […] The recovery rates are determined as the rate of recovery following an acid load. […]

[3] = tested on: gastric glands (gastric parietal cells); assay: Acid secretion by superfused gastric glands of CaSR knockout (Casr−/−; Gcm2−/−) mice; conditions: glands from Casr−/−, FIG. 2; for acid secretion stimulated by natural secretagogue: 100 μM, Gcm2−/− mice
Description: as §1
The HEPES-Ringer solution contained (in mmol/L): NaCl 125; KCl 5; MgCl2 0.5; HEPES 22, CaCl2 0.1 or 1.6; glucose 10, pH=7.4. The solution was bubbled with 100% O2. 2′,7′-bis′(carboxyethyl)-5-(6)-carboxyfluorescein (BCECF) from Invitrogen (Seattle, Wash., USA) and stock solutions were prepared in dimethyl sulphoxide (DMSO).
(§5) Individual gastric glands were hand dissected and transferred to the stage of an inverted microscope where they were loaded with the intracellular pH marker BCECF. Once loaded with the dye the glands were superfused with normal HEPES Ringer solution at 37° C. and at a pH of 7.4 for 5 minutes. The glands were then challenged with 20 mM NH4Cl and 0 mM Na to induce an acid load within the cell. The rate of recover was then calculated in the presence or absence of the calcimimetic Compound A at either 10 or 100 nM concentration.
(§6) The rate of recovery in the absence of Na was recorded for each parietal cell and then summated and the mean ±SEM of the data for each gland and then for each animal determined. […] The recovery rates are determined as the rate of recovery following an acid load. This rate determines how fast the cell can extrude protons and provides a measure of the activity of the gastric H,K-ATPase proton pump.
Gastric acid secretion is measured in Casr^−/−; Gcm2^−/− mice that lack a functional CaSR.

[4] = tested on: gastric glands (gastric parietal cells); assay: Acid secretion by superfused gastric glands isolated from control Casr+/+; Gcm2−/− mice (rate of recovery after acid load, BCECF); conditions: FIG. 1
Description: as §1, §2, §3, §4

[5] = tested on: gastric glands (gastric parietal cells); assay: Secretagogue (acetyl choline) induced acid secretion in mouse gastric glands with functional CaSR; conditions: 100 μM acetyl choline, calcilytic at 10 or 100 nM, mice with functional CaSR (Casr+/+; Gcm2−/−), FIG. 3
[6] = tested on: gastric glands (gastric parietal cells); assay: Acid secretion by superfused gastric glands from mice with constitutively active gastric H,K-ATPase proton pump; conditions: mice with functional CaSR and constitutively active H,K-ATPase; FIG. 5
Description: as §5, §6
These mice have a mutation in the gastric H,K-ATPase proton pump that renders the pump constitutively active.

COc1cccc(C(C)NCCCc2ccccc2Cl)c1 (stereo not drawn) [Compound A, 3-(2-chlorophenyl)-N-(1-(3-(methyloxy)phenyl)ethyl)-1-propanamine]
effect on secretagogue induced acid secretion [1]: decreased acid secretion | concentration dependence of the effect on acid secretion [2]: concentration dependent | effect on basal acid secretion ([3]; Gcm2−/− mice lacking functional CaSR): unable to increase acid secretion | concentration dependence of the effect on acid secretion [4]: concentration dependent

CC(C)(Cc1ccc2ccccc2c1)NCC(O)COc1cccc(Cl)c1C#N (stereo not drawn) [Compound B, 2-chloro-6-(2-hydroxy-3-(2-methyl-1-(naphthalen-2-yl)propan-2-ylamino)propoxy)benzonitrile]
inhibition of secretagogue induced acid secretion [5]: inhibition of acid secretion in a concentration dependent fashion | inhibition of secretagogue induced acid secretion ([5]; listed as compound B): reduces acid secretion in a dose-dependent manner | inhibition of acid secretion [6]: suppresses gastric acid secretion in a concentration-dependent fashion; also recorded: reduce acid secretion

C[N+](C)(C)CCOC(N)=O [carbachol]
acid secretion stimulated by natural secretagogue [3]: able to increase acid secretion; also recorded: increases acid secretion

NCCc1c[nH]cn1 [histamine]
acid secretion stimulated by natural secretagogue [3]: able to increase acid secretion; also recorded: increases acid secretion
